Measured values: PubChem BioAssay (NCI)
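How tested: cells in 96-well plates exposed to compound for 48 hours at five concentrations. TGI is the concentration that stops growth completely.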

Assays:
Assay in all cases: NCI tumour cell line growth inhibition, 48 h
[1] = test system: 786-0 renal
[2] = test system: A498 renal
[3] = test system: A549 NSCLC
[4] = test system: ACHN renal
[5] = test system: CAKI-1 renal
[6] = test system: CCRF-CEM leukemia
[7] = test system: COLO 205 colon
[8] = test system: DLD-1 colon
[9] = test system: DMS 114 small cell lung
[10] = test system: DMS 273 small cell lung
[11] = test system: EKVX NSCLC
[12] = test system: HCC-2998 colon
[13] = test system: HCT-116 colon
[14] = test system: HCT-15 colon
[15] = test system: HL-60(TB) leukemia
[16] = test system: HOP-18 NSCLC
[17] = test system: HOP-62 NSCLC
[18] = test system: HT29 colon
[19] = test system: IGROV1 ovarian
[20] = test system: K-562 leukemia
[21] = test system: KM12 colon
[22] = test system: KM20L2 colon
[23] = test system: LOX IMVI melanoma
[24] = test system: LXFL 529 NSCLC
[25] = test system: M14 melanoma
[26] = test system: M19-MEL melanoma
[27] = test system: MALME-3M melanoma
[28] = test system: MOLT-4 leukemia
[29] = test system: NCI-H226 lung
[30] = test system: NCI-H23 lung
[31] = test system: NCI-H460 lung
[32] = test system: NCI-H522 lung
[33] = test system: OVCAR-3 ovarian
[34] = test system: OVCAR-4 ovarian
[35] = test system: OVCAR-5 ovarian
[36] = test system: OVCAR-8 ovarian
[37] = test system: RPMI-8226 leukemia
[38] = test system: RXF 393 renal
[39] = test system: RXF-631 renal
[40] = test system: SF-268 CNS
[41] = test system: SF-295 CNS
[42] = test system: SF-539 CNS
[43] = test system: SK-MEL-2 melanoma
[44] = test system: SK-MEL-28 melanoma
[45] = test system: SK-MEL-5 melanoma
[46] = test system: SK-OV-3 ovarian
[47] = test system: SN12C renal
[48] = test system: SNB-19 CNS
[49] = test system: SNB-75 CNS
[50] = test system: SNB-78 CNS
[51] = test system: SR leukemia
[52] = test system: SW-620 colon
[53] = test system: TK-10 renal
[54] = test system: U251 CNS
[55] = test system: UACC-257 melanoma
[56] = test system: UACC-62 melanoma
[57] = test system: UO-31 renal
[58] = test system: XF 498 CNS
[59] = test system: HOP-92 NSCLC

O=S1c2ccccc2N=C(c2cccc3ccccc23)CC1c1cccc2ccccc12 (stereo not given)
TGI [1]: 76.6 µM
TGI [2]: 39.2 µM
TGI [3]: 36.7 µM
TGI [4]: 56.4 µM
TGI [5]: 71.2 µM
TGI [6]: 49.1 µM
TGI [7]: 37.6 µM
TGI [8]: 62.8 µM
TGI [9]: 34.8 µM
TGI [10]: > 100 µM
TGI [11]: 84.1 µM
TGI [12]: 31.8 µM
TGI [13]: 39.3 µM
TGI [14]: 32 µM
TGI [15]: 30.5 µM
TGI [16]: 25.2 µM
TGI [17]: > 100 µM
TGI [18]: 49.5 µM
TGI [19]: 34 µM
TGI [20]: 60.5 µM
TGI [21]: 32 µM
TGI [22]: > 100 µM
TGI [23]: 27.9 µM
TGI [24]: 33.6 µM
TGI [25]: 28.1 µM
TGI [26]: 4.33 µM
TGI [27]: 37.4 µM
TGI [28]: 55.3 µM
TGI [29]: 42.2 µM
TGI [30]: 39.1 µM
TGI [31]: 40.6 µM
TGI [32]: 30 µM
TGI [33]: 40.5 µM
TGI [34]: 27.8 µM
TGI [35]: 58.3 µM
TGI [36]: 46.3 µM
TGI [37]: 50.9 µM
TGI [38]: 38.7 µM
TGI [39]: > 100 µM
TGI [40]: 57.5 µM
TGI [41]: 71.2 µM
TGI [42]: 40.6 µM
TGI [43]: 40.9 µM
TGI [44]: 20.6 µM
TGI [45]: 19.9 µM
TGI [46]: > 100 µM
TGI [47]: 30.5 µM
TGI [48]: 66.7 µM
TGI [49]: 49.1 µM
TGI [50]: > 100 µM
TGI [51]: 49.2 µM
TGI [52]: 37.5 µM
TGI [53]: 89.3 µM
TGI [54]: 37.7 µM
TGI [55]: 31.2 µM
TGI [56]: 26.4 µM
TGI [57]: 67.8 µM
TGI [58]: 37.5 µM

CCCCCCCCCCC(=O)CC(=O)c1c(O)cccc1O
TGI [1]: > 100 µM
TGI [2]: > 100 µM
TGI [3]: > 100 µM
TGI [4]: 91.3 µM
TGI [5]: > 100 µM
TGI [7]: > 100 µM
TGI [8]: > 100 µM
TGI [9]: 72 µM
TGI [10]: 58.2 µM
TGI [11]: > 100 µM
TGI [12]: > 100 µM
TGI [13]: 41.8 µM
TGI [14]: > 100 µM
TGI [15]: 37.3 µM
TGI [16]: 98.7 µM
TGI [17]: 72.9 µM
TGI [59]: 82 µM
TGI [18]: > 100 µM
TGI [19]: > 100 µM
TGI [20]: 81.3 µM
TGI [21]: > 100 µM
TGI [22]: > 100 µM
TGI [23]: 37 µM
TGI [24]: > 100 µM
TGI [25]: > 100 µM
TGI [26]: 67.1 µM
TGI [27]: > 100 µM
TGI [28]: 59 µM
TGI [29]: 63.6 µM
TGI [30]: 81.7 µM
TGI [31]: > 100 µM
TGI [32]: 90.4 µM
TGI [33]: 63.7 µM
TGI [34]: > 100 µM
TGI [35]: 49.1 µM
TGI [36]: > 100 µM
TGI [37]: 50.2 µM
TGI [38]: 72.5 µM
TGI [39]: > 100 µM
TGI [40]: > 100 µM
TGI [41]: > 100 µM
TGI [42]: > 100 µM
TGI [44]: > 100 µM
TGI [45]: 72.8 µM
TGI [46]: > 100 µM
TGI [47]: > 100 µM
TGI [48]: > 100 µM
TGI [49]: > 100 µM
TGI [50]: > 100 µM
TGI [51]: > 100 µM
TGI [52]: > 100 µM
TGI [53]: > 100 µM
TGI [54]: 69.5 µM
TGI [55]: 96 µM
TGI [56]: > 100 µM
TGI [57]: 85.9 µM
TGI [58]: 46.2 µM
